# Test results published in US10189839B2, “Tricyclic imidazole compounds as inhibitors of tryptophan hydroxylase” (ACTELION PHARMACEUTICALS LTD, priority 2013, dated 2019).
# Target: T1, full length human TPH1 (Homo sapiens, UniProt P17752)
# T1 construct: To generate the enzyme, full length human TPH1 is cloned into the plasmid pET20b(+); made in house; host or cells: E. coli
# T1 sequence (P17752 1-444): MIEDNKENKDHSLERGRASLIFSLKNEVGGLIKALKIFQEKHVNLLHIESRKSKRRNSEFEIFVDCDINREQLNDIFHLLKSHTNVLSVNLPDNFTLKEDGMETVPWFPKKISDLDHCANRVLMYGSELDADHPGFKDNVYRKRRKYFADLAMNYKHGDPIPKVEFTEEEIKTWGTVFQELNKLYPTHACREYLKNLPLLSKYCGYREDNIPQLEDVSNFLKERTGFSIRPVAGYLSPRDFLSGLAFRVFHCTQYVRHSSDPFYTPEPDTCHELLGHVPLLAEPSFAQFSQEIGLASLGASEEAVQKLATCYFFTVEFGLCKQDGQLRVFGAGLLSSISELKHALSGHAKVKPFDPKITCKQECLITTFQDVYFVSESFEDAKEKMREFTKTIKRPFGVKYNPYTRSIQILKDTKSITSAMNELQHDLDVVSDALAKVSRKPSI
# Assay: Biochemical in vitro assay using fluorescence readout (TPH1 enzyme activity)
# Settings: Table 1, mean where determined several times
# Outline: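 E. coli-expressed full-length human TPH1 (40-80 nM), affinity- and size-exclusion-purified, incubated 60 min at 15° C. in 0.1M Tris-HCl pH 7.6 with 1 mM DTT, 0.2 mg/ml catalase, 100 μM 6-methyltetrahydropterine and 40 μM L-tryptophan. 5-Hydroxy-L-tryptophan read by fluorescence (ex 300/em 540 nm) after HClO4 quench; IC50 versus vehicle, mean where repeated.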
row,SMILES,IC50 [nM]
1,"Cc1nc(C(F)(F)F)sc1C1c2c(nc3n2CCCC3)CCN1C(=O)COc1ccc(NS(C)(=O)=O)nc1Cl (centres unmarked) [Example 1.18.1, N-(6-chloro-5-(2-(1-(4-methyl-2-(trifluoromethyl)thiazol-5-yl)-3,4,6,7,8,9-hexahydroimidazo[1,2-a:5,4-c′]dipyridin-2(1H)-yl)-2-oxoethoxy)pyridin-2-yl)methanesulfonamide]",126
2,"Cc1cc(F)cnc1C1c2c(nc3n2CCCC3)CCN1C(=O)COc1ccc(NS(C)(=O)=O)nc1Cl (centres unmarked) [Example 1.19.1, N-(6-chloro-5-(2-(1-(5-fluoro-3-methylpyridin-2-yl)-3,4,6,7,8,9-hexahydroimidazo[1,2-a:5,4-c′]dipyridin-2(1H)-yl)-2-oxoethoxy)pyridin-2-yl)methanesulfonamide]",113
3,"O=C(NC1CC1)c1ccc(OCC(=O)N2CCc3nc4n(c3C2c2ccc(OC(F)(F)F)cc2F)CCCC4)c(Cl)n1 (centres unmarked) [Example 1.20.1, 6-chloro-N-cyclopropyl-5-(2-(1-(2-fluoro-4-(trifluoromethoxy)phenyl)-3,4,6,7,8,9-hexahydroimidazo[1,2-a:5,4-c′]dipyridin-2(1H)-yl)-2-oxoethoxy)picolinamide]",26
4,"CS(=O)(=O)Nc1ccc(OCC(=O)N2CCc3nc4n(c3C2c2ccc(OC(F)(F)F)cc2F)CCCC4)c(Cl)n1 (centres unmarked) [Example 1.20.2, N-(6-chloro-5-(2-(1-(2-fluoro-4-(trifluoromethoxy)phenyl)-3,4,6,7,8,9-hexahydroimidazo[1,2-a:5,4-c′]dipyridin-2(1H)-yl)-2-oxoethoxy)pyridin-2-yl)methanesulfonamide]",37
5,"COc1ccc(C2c3c(nc4n3CCCC4)CCN2C(=O)COc2ccc(C(=O)NC3CC3)nc2Cl)c(F)c1 (centres unmarked) [Example 1.21.1, 6-chloro-N-cyclopropyl-5-(2-(1-(2-fluoro-4-methoxyphenyl)-3,4,6,7,8,9-hexahydroimidazo[1,2-a:5,4-c′]dipyridin-2(1H)-yl)-2-oxoethoxy)picolinamide]",18
6,"COc1ccc(C2c3c(nc4n3CCCC4)CCN2C(=O)COc2ccc(NS(C)(=O)=O)nc2Cl)c(F)c1 (centres unmarked) [Example 1.21.2, N-(6-chloro-5-(2-(1-(2-fluoro-4-methoxyphenyl)-3,4,6,7,8,9-hexahydroimidazo[1,2-a:5,4-c′]dipyridin-2(1H)-yl)-2-oxoethoxy)pyridin-2-yl)methanesulfonamide]",78
7,"CS(=O)(=O)Nc1ccc(OCC(=O)N2CCc3nc4n(c3C2c2ccc(C#N)cc2F)CCCC4)c(Cl)n1 (centres unmarked) [Example 1.22.1, N-(6-chloro-5-(2-(1-(4-cyano-2-fluorophenyl)-3,4,6,7,8,9-hexahydroimidazo[1,2-a:5,4-c′]dipyridin-2(1H)-yl)-2-oxoethoxy)pyridin-2-yl)methanesulfonamide]",48
8,"N#Cc1ccc(C2c3c(nc4n3CCCC4)CCN2C(=O)COc2ccc(C(=O)NC3CC3)nc2Cl)c(F)c1 (centres unmarked) [Example 1.22.2, 6-chloro-5-(2-(1-(4-cyano-2-fluorophenyl)-3,4,6,7,8,9-hexahydroimidazo[1,2-a:5,4-c′]dipyridin-2(1H)-yl)-2-oxoethoxy)-N-cyclopropylpicolinamide]",28
9,"COC(=O)c1ccc(C2c3c(nc4n3CCCC4)CCN2C(=O)COc2ccc(NS(C)(=O)=O)nc2Cl)c(F)c1 (centres unmarked) [Example 1.23.1, methyl-4-(2-(2-((2-chloro-6-(methylsulfonamido)pyridin-3-yl)oxy)acetyl)-1,2,3,4,6,7,8,9-octahydroimidazo[1,2-a:5,4-c′]dipyridin-1-yl)-3-fluorobenzoate]",21
10,"COC(=O)c1ccc([C@@H]2c3c(nc4n3CCCC4)CCN2C(=O)COc2ccc(C(=O)NC3CC3)nc2Cl)c(F)c1 [Example 1.23.2, methyl (R)-4-(2-(2-((2-chloro-6-(cyclopropylcarbamoyl)pyridin-3-yl)oxy)acetyl)-1,2,3,4,6,7,8,9-octahydroimidazo[1,2-a:5,4-c′]dipyridin-1-yl)-3-fluorobenzoate]",56
11,"CC(C)(O)c1ccc(C2c3c(nc4n3CCCC4)CCN2C(=O)COc2ccc(C(=O)NC3CC3)nc2Cl)c(F)c1 (centres unmarked) [Example 1.24.1, 6-chloro-N-cyclopropyl-5-(2-(1-(2-fluoro-4-(2-hydroxypropan-2-yl)phenyl)-3,4,6,7,8,9-hexahydroimidazo[1,2-a:5,4-c′]dipyridin-2(1H)-yl)-2-oxoethoxy)picolinamide]",68
12,"CC(C)(O)c1ccc(C2c3c(nc4n3CCCC4)CCN2C(=O)COc2ccc(NS(C)(=O)=O)nc2Cl)c(F)c1 (centres unmarked) [Example 1.24.2, N-(6-chloro-5-(2-(1-(2-fluoro-4-(2-hydroxypropan-2-yl)phenyl)-3,4,6,7,8,9-hexahydroimidazo[1,2-a:5,4-c′]dipyridin-2(1H)-yl)-2-oxoethoxy)pyridin-2-yl)methanesulfonamide]",131
13,"COC(C)(C)c1ccc(C2c3c(nc4n3CCCC4)CCN2C(=O)COc2ccc(C(=O)NC3CC3)nc2Cl)c(F)c1 (centres unmarked) [Example 1.25.1, 6-chloro-N-cyclopropyl-5-(2-(1-(2-fluoro-4-(2-methoxypropan-2-yl)phenyl)-3,4,6,7,8,9-hexahydroimidazo[1,2-a:5,4-c′]dipyridin-2(1H)-yl)-2-oxoethoxy)picolinamide]",68
14,"COC(C)(C)c1ccc(C2c3c(nc4n3CCCC4)CCN2C(=O)COc2ccc(NS(C)(=O)=O)nc2Cl)c(F)c1 (centres unmarked) [Example 1.25.2, N-(6-chloro-5-(2-(1-(2-fluoro-4-(2-methoxypropan-2-yl)phenyl)-3,4,6,7,8,9-hexahydroimidazo[1,2-a:5,4-c′]dipyridin-2(1H)-yl)-2-oxoethoxy)pyridin-2-yl)methanesulfonamide]",303
15,"COCc1ccc(C2c3c(nc4n3CCCC4)CCN2C(=O)COc2ccc(C(=O)NC3CC3)nc2Cl)c(F)c1 (centres unmarked) [Example 1.26.1, 6-chloro-N-cyclopropyl-5-(2-(1-(2-fluoro-4-(methoxymethyl)phenyl)-3,4,6,7,8,9-hexahydroimidazo[1,2-a:5,4-c′]dipyridin-2(1H)-yl)-2-oxoethoxy)picolinamide]",19
16,"COCc1ccc(C2c3c(nc4n3CCCC4)CCN2C(=O)COc2ccc(NS(C)(=O)=O)nc2Cl)c(F)c1 (centres unmarked) [Example 1.26.2, N-(6-chloro-5-(2-(1-(2-fluoro-4-(methoxymethyl)phenyl)-3,4,6,7,8,9-hexahydroimidazo[1,2-a:5,4-c′]dipyridin-2(1H)-yl)-2-oxoethoxy)pyridin-2-yl)methanesulfonamide]",25
17,"COCCOc1ccc(C2c3c(nc4n3CCCC4)CCN2C(=O)COc2ccc(C(=O)NC3CC3)nc2Cl)c(F)c1 (centres unmarked) [Example 1.27.1, 6-chloro-N-cyclopropyl-5-(2-(1-(2-fluoro-4-(2-methoxyethoxy)phenyl)-3,4,6,7,8,9-hexahydroimidazo[1,2-a:5,4-c′]dipyridin-2(1H)-yl)-2-oxoethoxy)picolinamide]",60
18,"COCCOc1ccc(C2c3c(nc4n3CCCC4)CCN2C(=O)COc2ccc(NS(C)(=O)=O)nc2Cl)c(F)c1 (centres unmarked) [Example 1.27.2, N-(6-chloro-5-(2-(1-(2-fluoro-4-(2-methoxyethoxy)phenyl)-3,4,6,7,8,9-hexahydroimidazo[1,2-a:5,4-c′]dipyridin-2(1H)-yl)-2-oxoethoxy)pyridin-2-yl)methanesulfonamide]",34
19,"O=C(NC1CC1)c1ccc(OCC(=O)N2CCc3nc4n(c3C2c2ccc(OCCO)cc2F)CCCC4)c(Cl)n1 (centres unmarked) [Example 1.28.1, 6-chloro-N-cyclopropyl-5-(2-(1-(2-fluoro-4-(2-hydroxyethoxy)phenyl)-3,4,6,7,8,9-hexahydroimidazo[1,2-a:5,4-c′]dipyridin-2(1H)-yl)-2-oxoethoxy)picolinamide]",54
20,"CS(=O)(=O)Nc1ccc(OCC(=O)N2CCc3nc4n(c3C2c2ccc(OCCO)cc2F)CCCC4)c(Cl)n1 (centres unmarked) [Example 1.28.2, N-(6-chloro-5-(2-(1-(2-fluoro-4-(2-hydroxyethoxy)phenyl)-3,4,6,7,8,9-hexahydroimidazo[1,2-a:5,4-c′]dipyridin-2(1H)-yl)-2-oxoethoxy)pyridin-2-yl)methanesulfonamide]",21
21,"CS(=O)(=O)Nc1ccc(OCC(=O)N2CCc3nc4n(c3C2c2ccc(Cl)cc2F)CCC4)c(Cl)n1 (centres unmarked) [Example 2.1.1, N-(6-chloro-5-(2-(1-(4-chloro-2-fluorophenyl)-3,4,7,8-tetrahydro-1H-pyrrolo[2′,1′:2,3]imidazo[4,5-c]pyridin-2(6H)-yl)-2-oxoethoxy)pyridin-2-yl)methanesulfonamide]",13
22,"CCc1nc(NS(C)(=O)=O)ccc1OCC(=O)N1CCc2nc3n(c2C1c1ccc(Cl)cc1F)CCC3 (centres unmarked) [Example 2.1.2, N-(5-(2-(1-(4-chloro-2-fluorophenyl)-3,4,7,8-tetrahydro-1H-pyrrolo[2′,1′:2,3]imidazo[4,5-c]pyridin-2(6H)-yl)-2-oxoethoxy)-6-ethylpyridin-2-yl)methanesulfonamide]",13
23,"CCc1nc(N2CCCS2(=O)=O)ccc1OCC(=O)N1CCc2nc3n(c2C1c1ccc(Cl)cc1F)CCC3 (centres unmarked) [Example 2.1.3, 1-(1-(4-chloro-2-fluorophenyl)-3,4,7,8-tetrahydro-1H-pyrrolo[2′,1′:2,3]imidazo[4,5-c]pyridin-2(6H)-yl)-2-((6-(1,1-dioxidoisothiazolidin-2-yl)-2-ethylpyridin-3-yl)oxy)ethanone]",8
